Laboratory results: US20200239398A1, “METHYLENE-CYCLOALKYLACETATE DERIVATIVES AND THEIR USE IN TREATMENT OF NEUROTROPIC CONDITIONS” (Yissum Research Development Company of The Hebrew …, priority 2018, published 2020)
Values joined by “and” are separate entries in the source; they are usually repeats but may differ in a detail not shown here. Identical values can stand only once. Like-named read-outs stand apart in the source and are kept apart here.

Columns and labels:
male C57BL/6 mice = assay: Sensory motor/neurological-neurobehavioral tests (mNSS); format: in vivo; conditions: 250 mg/kg iv; for Angle of increase / Beam balance (score) / Hind limb (placing test score) / mNSS / Foot fault / Self-suspension time: individual animal; for Foot fault / Self-suspension time: listed as HU-MCA-13, 250 mg/kg
Description: This pilot study was conducted to obtain acute information of the dose toxicity of HU-MCA-13 (Compound 13 in Scheme 1) in male mice. Male C57BL/6 mice, were injected intravenously with 0.2 ml of HU-MCA-13 in a dose of 250 mg/kg. Mice were monitored for 4 consecutive weeks for autonomic and neurotoxicity symptoms. The mortality and changes on body weight, clinical signs, gross observation, were monitored up to 30 days after treatment. No mortality was found at this high dose of 250 mg/kg. […] The mice were examined once a week for autonomic symptoms by measuring salivation, urinary delivery, pupillary constriction, heart rate, blood pressure, and hair contraction. […] Occurrences of either flaccid or spastic paralysis of the legs were not observed. […] Furthermore, no mice sudden deaths occurred within 24 hours after the injection or during the 4 weeks of observation. […] Sensory motor tests were scored individually and according to the modified neurologic function severity score (mNSS). The data from each individual test and the total score calculated from individual tests that make up the mNSS were measured. The following assays were used: a. beam balance test—mice were placed on a 1-inch wide beam for 60 seconds. A normal response is balance with steady posture for 60 seconds (a score of 0). Deficits are scored if the rat: grasps the side of the beam (a score of 1), hugs the beam and one limb falls down from the beam (a score of 2), hugs the beam and two limbs fall off the beam (a score of 3), attempts to balance on the beam, but falls off from 60 seconds (a score of 4), attempts to balance on the beam but falls off from […], or falls off with no attempt to balance or hang on the beam in <20 seconds (a score of 6); b. foot fault test—forelimb movement dysfunction, while walking on elevated metal grids, was monitored. The animal was placed on horizontal grids (85.5×26.5×20) cm with a glass enclosure for observation. With each weight bearing step, the forelimb can fall or slip between the metal support bars, an event recorded as a foot fault. The total number of forelimb steps and the total number of foot faults were recorded. The percentage of forelimb foot faults to the total steps that occurred within 2 minutes marks the test results; c. hind limb placing test—This test monitors reposition of hind limbs placed down and away from the table edge. The ability to retrieve and place the hind limbs back onto the table was scored. Immediate and complete limb retrieval was scored 0, delayed (>2 seconds) limb retrieval and/or interspersed flailing was scored 1, and no limb retrieval was scored 2; d. Increasing platform angle to slide test—This test monitors the strength and stability of resistance to slide down an inclined platform. It deploys a clean wooden board (60 cm by 40 cm) positioned horizontally. Mice were placed on the board with head facing up the increasing incline. The board then swings to increase the degree of inclination the rat experiences until slipping down the board feet first. The degree of the angle at which the rat relinquishes their grip/stance on the board (slips down) constitute the test results; e. the forelimb whole body suspension test—The test measures grip strength by duration of suspension by forepaws. The rat is suspended on a metal bar (diameter 5 mm) which it tightly holds onto by its forelimbs. The time (seconds) during which each rat could sustain its body weight while holding onto the bar is recorded. The mice drop from the bar onto soft material with no harm. The test was repeated three times and a mean result per rat was used as the score. Cumulatively these sensory motor/neurological findings indicate acute tolerability of 250 mg/kg HU-MCA-13 iv injection in Male C57BL/6 mice.

[1] = molecular target: Adrenergic Receptor α1A (ADRA1A) (Homo sapiens, UniProt P35348); assay: SAFETYscan ADRA1A Calcium Flux; format: cell-based; conditions: 10 μM HU-MCA-13, read-out: Maximal Response
Chain of Adrenergic Receptor α1A (ADRA1A) (P35348 whole entry): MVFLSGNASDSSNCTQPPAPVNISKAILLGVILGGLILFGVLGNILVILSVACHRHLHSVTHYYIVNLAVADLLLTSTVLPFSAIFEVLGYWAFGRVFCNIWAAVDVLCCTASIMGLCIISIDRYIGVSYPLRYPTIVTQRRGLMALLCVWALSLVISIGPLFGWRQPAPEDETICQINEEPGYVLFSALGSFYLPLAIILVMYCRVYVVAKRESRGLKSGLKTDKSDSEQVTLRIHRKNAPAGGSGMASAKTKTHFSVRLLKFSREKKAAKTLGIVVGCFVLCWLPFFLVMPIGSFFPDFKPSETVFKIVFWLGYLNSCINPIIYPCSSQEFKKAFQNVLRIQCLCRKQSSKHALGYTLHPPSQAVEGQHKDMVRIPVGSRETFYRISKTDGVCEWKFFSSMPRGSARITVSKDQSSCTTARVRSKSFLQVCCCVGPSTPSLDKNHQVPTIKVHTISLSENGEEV

[2] = molecular target: Adrenergic Receptor β1 (ADRB1) (Homo sapiens, UniProt P08588); assay: SAFETYscan ADRB1 cAMP; format: cell-based; conditions: 10 μM HU-MCA-13, read-out: Maximal Response
Chain of Adrenergic Receptor β1 (ADRB1) (P08588 whole entry): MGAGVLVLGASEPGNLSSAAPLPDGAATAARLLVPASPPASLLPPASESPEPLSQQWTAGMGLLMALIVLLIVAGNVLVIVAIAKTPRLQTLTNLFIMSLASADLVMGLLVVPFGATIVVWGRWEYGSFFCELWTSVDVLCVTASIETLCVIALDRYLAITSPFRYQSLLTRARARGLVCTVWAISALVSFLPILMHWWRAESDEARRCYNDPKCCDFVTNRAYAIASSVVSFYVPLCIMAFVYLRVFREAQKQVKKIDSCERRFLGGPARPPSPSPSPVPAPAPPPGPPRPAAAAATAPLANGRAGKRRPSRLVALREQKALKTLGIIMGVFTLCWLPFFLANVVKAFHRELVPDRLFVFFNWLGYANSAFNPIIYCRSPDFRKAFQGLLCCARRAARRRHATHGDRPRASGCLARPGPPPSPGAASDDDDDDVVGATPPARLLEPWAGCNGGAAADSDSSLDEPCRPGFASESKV

[3] = molecular target: Arginine Vasopressin Receptor 1A (AVPR1A) (Homo sapiens, UniProt P37288); assay: SAFETYscan AVPR1A Calcium Flux; format: cell-based; conditions: 10 μM HU-MCA-13, read-out: Maximal Response
Chain of Arginine Vasopressin Receptor 1A (AVPR1A) (P37288 whole entry): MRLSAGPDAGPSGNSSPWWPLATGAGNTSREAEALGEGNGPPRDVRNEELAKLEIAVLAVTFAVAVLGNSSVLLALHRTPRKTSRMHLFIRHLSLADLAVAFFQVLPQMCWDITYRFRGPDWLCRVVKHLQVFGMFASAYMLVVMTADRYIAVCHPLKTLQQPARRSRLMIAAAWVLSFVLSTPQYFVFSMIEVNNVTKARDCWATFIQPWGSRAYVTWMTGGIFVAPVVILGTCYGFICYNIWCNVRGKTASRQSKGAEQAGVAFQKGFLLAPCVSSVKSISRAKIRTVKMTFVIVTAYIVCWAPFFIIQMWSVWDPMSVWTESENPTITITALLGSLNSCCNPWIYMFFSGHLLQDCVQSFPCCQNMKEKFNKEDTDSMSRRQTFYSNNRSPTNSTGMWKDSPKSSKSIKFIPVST

[4] = molecular target: Muscarinic acetylcholine Receptor M1 (CHRM1) (Homo sapiens, UniProt P11229); assay: cell-based; conditions: 10 μM HU-MCA-13, read-out: Maximal Response
Chain of Muscarinic acetylcholine Receptor M1 (CHRM1) (P11229 whole entry): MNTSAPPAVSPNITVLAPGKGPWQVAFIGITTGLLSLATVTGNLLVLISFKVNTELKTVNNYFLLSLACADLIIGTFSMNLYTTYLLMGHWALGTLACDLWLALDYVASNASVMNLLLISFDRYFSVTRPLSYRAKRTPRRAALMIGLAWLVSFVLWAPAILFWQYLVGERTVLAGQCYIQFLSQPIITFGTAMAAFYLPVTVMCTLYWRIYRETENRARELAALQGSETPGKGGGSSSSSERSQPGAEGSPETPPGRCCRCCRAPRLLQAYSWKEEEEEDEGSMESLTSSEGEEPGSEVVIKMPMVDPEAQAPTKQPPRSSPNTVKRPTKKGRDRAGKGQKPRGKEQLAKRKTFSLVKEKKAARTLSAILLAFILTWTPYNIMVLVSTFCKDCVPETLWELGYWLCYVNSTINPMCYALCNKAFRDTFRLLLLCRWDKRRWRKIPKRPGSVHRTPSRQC

[5] = molecular target: Muscarinic acetylcholine Receptor M3 (CHRM3) (Homo sapiens, UniProt P20309); assay: cell-based; conditions: 10 μM HU-MCA-13, read-out: Maximal Response
Chain of Muscarinic acetylcholine Receptor M3 (CHRM3) (P20309 whole entry): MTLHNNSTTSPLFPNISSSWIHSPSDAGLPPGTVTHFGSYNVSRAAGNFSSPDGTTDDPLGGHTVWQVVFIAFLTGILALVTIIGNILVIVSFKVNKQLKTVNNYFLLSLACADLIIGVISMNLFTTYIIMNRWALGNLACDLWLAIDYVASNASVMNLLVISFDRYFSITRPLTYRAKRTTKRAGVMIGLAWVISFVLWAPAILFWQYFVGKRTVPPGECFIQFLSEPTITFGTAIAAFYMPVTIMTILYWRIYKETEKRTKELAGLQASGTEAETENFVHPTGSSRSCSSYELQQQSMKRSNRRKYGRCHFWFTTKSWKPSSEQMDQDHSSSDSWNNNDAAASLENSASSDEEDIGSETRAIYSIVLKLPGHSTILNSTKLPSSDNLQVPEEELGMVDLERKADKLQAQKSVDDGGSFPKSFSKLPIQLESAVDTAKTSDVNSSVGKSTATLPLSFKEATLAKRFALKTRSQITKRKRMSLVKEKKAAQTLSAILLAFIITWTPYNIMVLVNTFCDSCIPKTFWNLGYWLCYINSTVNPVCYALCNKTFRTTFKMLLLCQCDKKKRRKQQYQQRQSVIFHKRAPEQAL

[6] = molecular target: Cannabinoid Receptor 1 (CNR1) (Homo sapiens, UniProt P21554); assay: SAFETYscan CNR1 cAMP; format: cell-based; conditions: 10 μM HU-MCA-13; for Emax: read-out: Maximal Response
Chain of Cannabinoid Receptor 1 (CNR1) (P21554 whole entry): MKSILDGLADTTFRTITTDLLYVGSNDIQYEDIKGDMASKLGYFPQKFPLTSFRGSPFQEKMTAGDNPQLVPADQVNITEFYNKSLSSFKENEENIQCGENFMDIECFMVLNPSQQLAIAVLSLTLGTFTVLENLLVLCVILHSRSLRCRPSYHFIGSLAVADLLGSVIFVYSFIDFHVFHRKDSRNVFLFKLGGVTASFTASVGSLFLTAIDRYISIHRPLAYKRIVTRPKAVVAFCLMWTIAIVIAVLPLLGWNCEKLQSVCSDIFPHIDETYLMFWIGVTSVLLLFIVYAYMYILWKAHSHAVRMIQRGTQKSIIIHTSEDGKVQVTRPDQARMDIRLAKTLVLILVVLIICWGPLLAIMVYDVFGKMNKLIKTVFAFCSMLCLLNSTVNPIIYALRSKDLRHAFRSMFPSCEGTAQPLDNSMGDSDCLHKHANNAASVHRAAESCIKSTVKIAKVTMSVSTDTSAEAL

[7] = molecular target: Cannabinoid Receptor 2 (CNR2) (Homo sapiens, UniProt P34972); assay: SAFETYscan CNR2 cAMP; format: cell-based; conditions: 10 μM HU-MCA-13; for Emax: read-out: Maximal Response
Chain of Cannabinoid Receptor 2 (CNR2) (P34972 whole entry): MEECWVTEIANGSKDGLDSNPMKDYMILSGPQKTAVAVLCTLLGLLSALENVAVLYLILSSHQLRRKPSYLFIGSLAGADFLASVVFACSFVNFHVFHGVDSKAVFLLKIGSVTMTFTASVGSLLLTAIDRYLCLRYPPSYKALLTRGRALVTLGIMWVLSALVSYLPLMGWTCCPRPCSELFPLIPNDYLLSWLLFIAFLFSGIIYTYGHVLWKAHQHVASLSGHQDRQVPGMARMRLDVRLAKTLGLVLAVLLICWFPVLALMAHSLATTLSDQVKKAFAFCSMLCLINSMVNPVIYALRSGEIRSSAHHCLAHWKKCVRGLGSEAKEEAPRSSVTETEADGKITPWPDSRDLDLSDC

[8] = molecular target: 5-Hydroxytryptamine (Serotonin) Receptor 2A (HTR2A) (Homo sapiens, UniProt P28223); assay: SAFETYscan HTR2A Calcium Flux; format: cell-based; conditions: 10 μM HU-MCA-13, read-out: Maximal Response
Chain of 5-Hydroxytryptamine (Serotonin) Receptor 2A (HTR2A) (P28223 whole entry): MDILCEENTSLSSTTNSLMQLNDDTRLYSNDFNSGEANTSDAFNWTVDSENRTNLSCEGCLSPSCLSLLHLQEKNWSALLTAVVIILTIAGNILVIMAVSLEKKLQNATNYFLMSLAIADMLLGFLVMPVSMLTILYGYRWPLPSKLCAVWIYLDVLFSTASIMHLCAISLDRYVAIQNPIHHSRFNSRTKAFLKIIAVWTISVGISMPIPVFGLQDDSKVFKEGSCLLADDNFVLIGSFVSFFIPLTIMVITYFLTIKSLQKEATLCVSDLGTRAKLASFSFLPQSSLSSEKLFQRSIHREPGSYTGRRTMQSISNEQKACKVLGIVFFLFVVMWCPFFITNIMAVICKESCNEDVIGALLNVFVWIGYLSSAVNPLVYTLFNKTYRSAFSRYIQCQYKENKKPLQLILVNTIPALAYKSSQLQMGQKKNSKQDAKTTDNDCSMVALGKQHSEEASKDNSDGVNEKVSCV

[9] = molecular target: 5-Hydroxytryptamine (Serotonin) Receptor 2B (HTR2B) (Homo sapiens, UniProt P41595); assay: SAFETYscan HTR2B Calcium Flux; format: cell-based; conditions: 10 μM HU-MCA-13, read-out: Maximal Response
Chain of 5-Hydroxytryptamine (Serotonin) Receptor 2B (HTR2B) (P41595 whole entry): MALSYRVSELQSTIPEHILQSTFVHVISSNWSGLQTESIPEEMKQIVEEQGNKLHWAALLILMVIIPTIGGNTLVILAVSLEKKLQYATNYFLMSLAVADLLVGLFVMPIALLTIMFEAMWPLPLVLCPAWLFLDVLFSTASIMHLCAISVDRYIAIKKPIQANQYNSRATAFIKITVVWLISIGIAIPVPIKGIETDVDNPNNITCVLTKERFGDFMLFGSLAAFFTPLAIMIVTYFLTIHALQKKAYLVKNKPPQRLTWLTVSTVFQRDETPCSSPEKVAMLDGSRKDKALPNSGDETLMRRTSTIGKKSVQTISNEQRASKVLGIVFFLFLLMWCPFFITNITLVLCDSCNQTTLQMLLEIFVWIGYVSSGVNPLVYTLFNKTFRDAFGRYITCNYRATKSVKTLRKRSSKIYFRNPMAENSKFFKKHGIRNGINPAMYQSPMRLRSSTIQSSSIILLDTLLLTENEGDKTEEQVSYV

[10] = molecular target: T1, Lymphocyte Cell-Specific Protein-Tyrosine Kinase (Src family) (LCK) (Homo sapiens, UniProt P06239); assay: SAFETYscan LCK kinase Binding; conditions: Inhibitor mode, 10 μM HU-MCA-13, read-out: Maximal Response
T1 construct: DiscoverX (KINOMEscan)

Cyclooxygenase 1 (COX 1) = molecular target: T2, Cyclooxygenase 1 (COX 1) (Homo sapiens, UniProt P23219); assay: SAFETYscan COX 1 Enzymatic; format: biochemical; conditions: Inhibitor mode; 10 μM HU-MCA-13; read-out: Maximal Response
T2 construct: DiscoverX (SAFETYscan contract panel)

[11] = molecular target: T3, Norepinephrine transporter (NET) (Homo sapiens, UniProt P23975); assay: SAFETYscan NET Transporter; format: cell-based; conditions: Blocker mode; 10 μM HU-MCA-13; read-out: Maximal Response
T3 construct: DiscoverX (SAFETYscan contract panel)
T3 sequence (P23975 whole entry): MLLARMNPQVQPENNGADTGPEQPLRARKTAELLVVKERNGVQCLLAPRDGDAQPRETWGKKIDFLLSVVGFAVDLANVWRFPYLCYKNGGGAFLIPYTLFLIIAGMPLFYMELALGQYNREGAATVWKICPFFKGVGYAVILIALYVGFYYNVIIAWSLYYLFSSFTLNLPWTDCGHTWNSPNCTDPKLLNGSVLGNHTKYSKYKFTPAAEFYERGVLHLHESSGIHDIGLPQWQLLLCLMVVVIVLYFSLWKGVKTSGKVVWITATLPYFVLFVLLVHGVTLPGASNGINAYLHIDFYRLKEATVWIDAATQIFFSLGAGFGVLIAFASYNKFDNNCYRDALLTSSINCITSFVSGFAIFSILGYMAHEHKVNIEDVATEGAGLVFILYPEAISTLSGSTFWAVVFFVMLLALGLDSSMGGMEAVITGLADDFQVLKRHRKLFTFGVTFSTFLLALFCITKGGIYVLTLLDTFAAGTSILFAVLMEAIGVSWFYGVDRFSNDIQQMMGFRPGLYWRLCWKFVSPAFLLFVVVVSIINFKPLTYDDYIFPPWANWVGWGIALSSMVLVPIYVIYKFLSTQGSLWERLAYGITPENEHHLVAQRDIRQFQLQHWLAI

For `C=CCC1CCC[C@@H](CCC(=O)O)C1=C` (stereo partly drawn) [Compound 13], the sensory motor/neurological performance (male C57BL/6 mice; weekly routine motor tests) was “no neurological losses were observed”, the Angle of increase (male C57BL/6 mice; Day 0) was 35 degrees and the “Beam balance (score)” value (male C57BL/6 mice; Day 0) was 0. The “Hind limb (placing test score)” value (male C57BL/6 mice; Day 0) was 0, the mNSS (male C57BL/6 mice; Day 0) was 0 and the Foot fault (male C57BL/6 mice; Day 0) was 0/34 and 0/41 and 0/38 and 1/48. For the same compound, the Self-suspension time (male C57BL/6 mice; Day 0) was 8 seconds and 10 seconds (2×) and 9 seconds, the Angle of increase (male C57BL/6 mice; Day 1) was 35 degrees and the “Beam balance (score)” value (male C57BL/6 mice; Day 1) was 0. For the same compound, the “Hind limb (placing test score)” value (male C57BL/6 mice; Day 1) was 0, the mNSS (male C57BL/6 mice; Day 1) was 0 and the Foot fault (male C57BL/6 mice; Day 1) was 0/20 and 0/15 and 0/34 and 0/14. For the same compound, the Self-suspension time (male C57BL/6 mice; Day 1) was 14 seconds and 12 seconds (2×) and 15 seconds, the Angle of increase (male C57BL/6 mice; Day 5) was 35 degrees and the “Beam balance (score)” value (male C57BL/6 mice; Day 5) was 0. The “Hind limb (placing test score)” value (male C57BL/6 mice; Day 5) was 0, the mNSS (male C57BL/6 mice; Day 5) was 0 and the Foot fault (male C57BL/6 mice; Day 5) was 2/50 and 1/47 and 0/48 and 0/36. The Self-suspension time (male C57BL/6 mice; Day 5) was 13 seconds (2×) and 15 seconds and 14 seconds, the Emax ([1]; Agonist mode) was 1.12% and the Emax ([1]; Antagonist mode) was 3.06%. It also gave an Emax ([2]; Agonist mode) of 1.92%, an Emax ([2]; Antagonist mode) of 9.29% and an Emax ([3]; Agonist mode) of 0.29%. It also gave an Emax ([3]; Antagonist mode) of 0%, an Emax ([4]; Agonist mode) of 0% and an Emax ([4]; Antagonist mode) of 7.43%. The Emax ([5]; Agonist mode) was 0.13%, the Emax ([5]; Antagonist mode) was 8.81% and the “Maximal Response” value ([6]; Agonist mode) was 50.22%. The Emax ([6]; Agonist mode) was 50.1%, the Emax ([6]; Antagonist mode) was 0.57% and the “Maximal Response” value ([7]; Agonist mode) was 49.59%. The Emax ([7]; Agonist mode) was 49.6%, the Emax ([7]; Antagonist mode) was 4.11% and the Emax ([8]; Agonist mode) was 1.13%. The Emax ([8]; Antagonist mode) was 0%, the Emax ([9]; Agonist mode) was 0% and the Emax ([9]; Antagonist mode) was 0.13%. It also gave an Emax [10] of 12.8%, an Emax (Cyclooxygenase 1 (COX 1)) of 25% and an Emax [11] of 3.53%.
